We go through three compounds from PMC5599584, “Kinetic adaptation of human Myo19 for active mitochondrial transport to growing filopodia tips” (Scientific Reports, 2017).

Assay [1] addresses T1, Myo19-3IQ (Homo sapiens, UniProt Q96H55).
T1 construct: with Calmodulin
The assay is classed as biochemical. The following applies: no actin; 250 µM ATP (initial).

The target of assay [2] is T2, Acto·Myo19-3IQ (Homo sapiens, UniProt Q96H55). The assay is described as follows: biochemical.
For assay [3], the target named is T2, Acto·Myo19-3IQ. Kind of assay: stopped-flow mant FRET, association kinetics. It is filed as binding. The following applies: KMg50 buffer pH 7.3, 25 °C; bound to F-actin; labelled compound. Also noted: with Calmodulin; Actin, alpha skeletal muscle (rabbit or chicken skeletal muscle F-actin).
In assay [4] the target is T1, Myo19-3IQ. Kind of assay: stopped-flow mant FRET / single turnover. The assay is classed as binding. The following applies: read-out: K 1T.
Assay [5] has as its target F-actin (actin filaments from rabbit or chicken skeletal muscle) (rabbit or chicken) (UniProt P68135).

T2 sequence (Q96H55 whole entry, looked up): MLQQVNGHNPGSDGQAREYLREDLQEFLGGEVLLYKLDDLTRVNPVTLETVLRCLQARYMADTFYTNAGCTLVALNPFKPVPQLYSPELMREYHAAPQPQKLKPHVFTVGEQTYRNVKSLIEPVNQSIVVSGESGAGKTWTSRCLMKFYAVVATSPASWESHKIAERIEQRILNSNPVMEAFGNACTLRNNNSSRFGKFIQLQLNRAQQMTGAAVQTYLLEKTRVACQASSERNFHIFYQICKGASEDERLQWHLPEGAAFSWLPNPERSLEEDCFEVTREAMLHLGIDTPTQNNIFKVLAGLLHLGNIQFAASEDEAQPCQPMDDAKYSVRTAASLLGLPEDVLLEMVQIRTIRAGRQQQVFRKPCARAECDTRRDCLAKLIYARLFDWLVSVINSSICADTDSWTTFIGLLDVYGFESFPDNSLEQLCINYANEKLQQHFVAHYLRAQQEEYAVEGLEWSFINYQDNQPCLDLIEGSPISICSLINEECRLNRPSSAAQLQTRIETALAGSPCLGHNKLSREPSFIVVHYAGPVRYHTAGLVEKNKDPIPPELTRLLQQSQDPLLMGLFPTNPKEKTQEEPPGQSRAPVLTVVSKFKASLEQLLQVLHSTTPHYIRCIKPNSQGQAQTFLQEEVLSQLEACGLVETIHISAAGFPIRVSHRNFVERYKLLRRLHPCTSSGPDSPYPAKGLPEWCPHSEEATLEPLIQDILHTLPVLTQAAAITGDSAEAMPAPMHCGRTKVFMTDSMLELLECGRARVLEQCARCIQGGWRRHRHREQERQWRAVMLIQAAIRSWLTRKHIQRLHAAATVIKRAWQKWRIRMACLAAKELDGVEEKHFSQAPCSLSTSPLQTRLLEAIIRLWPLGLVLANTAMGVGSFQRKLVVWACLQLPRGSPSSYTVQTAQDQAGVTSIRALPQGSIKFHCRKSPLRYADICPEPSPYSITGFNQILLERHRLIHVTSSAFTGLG
T1 sequence (Q96H55 whole entry, looked up): as above

Take `Nc1ncnc2c1ncn2[C@@H]1O[C@H](COP(=O)(O)OP(=O)(O)OP(=O)(O)O)[C@@H](O)[C@H]1O` [ATP]: the “quenched-flow Pi burst; NADH-coupled ATPase” value in assay [1] was “Myo19-3IQ (in the absence of actin) mixed with ATP yielded a Pi burst amplitude”. The Kd in assay [2] was found to be 476 ± 116 µM. With `CNc1ccccc1C(=O)O[C@H]1C[C@H](n2cnc3c(N)ncnc32)O[C@@H]1COP(=O)(O)OP(=O)(O)OP(=O)(O)O` [mT], the “stopped-flow mant FRET, association kinetics” value in assay [3] is “mT bound similarly to Myo19-3IQ or Acto·Myo19-3IQ”. For the same compound, the Kd in assay [4] was roughly 0.04 µM. As to “Myo19-3IQ (human Myo19 motor domain with three IQ light chain-binding motifs, with its associated calmodulin light chain) (from UniProt P0DP23 1-149) (complex)”, the K ATPase: actin concentration at the half maximal steady-state ATPase activity (NADH-coupled assay, 1-100 µM F-actin) in assay [5] amounted to 11.6 µM.
